A short description of data set [1]: in vitro. Particulars: human.
In data set [2] the test system is P-gp (MDR1). Put plainly: in vitro. Particulars: dog.
In data set [3] the test system is rps29−/− embryos. Particulars: in vivo, cited from earlier work.
Data set [4] deals with CD34+ hematopoietic stem and progenitor cells with rps19 knockdown. To be noted: cited from earlier work.
Data set [5] deals with Caco-2 cells. To be noted: cited from earlier work.
In data set [6] the test system is MDCK-MDR1 cells.
The subject of data set [7] is embryos of Rps29 heterozygote fish. As to the kind of experiment: Zebra fish assay (tail mutation and anemia classification, o-dianisidine staining).
The subject of data set [8] is Caco-2 cells.
The conditions of data set [9]: antipsychotic potency; cited from earlier work.
For data set [10] the following is noted: in vivo; cited from earlier work.
Data set [11] deals with DBA murine model. Particulars: injection; cited from earlier work.
Data set [12] concerns the target p70 ribosomal S6 kinase (p70S6K) (Homo sapiens (Human), UniProt P23443). Particulars: profiling of over 100 kinases; cited from earlier work.
The mark [13] stands for this setting: Caco-2, Efflux ratio Caco-2 cells.
[14] abbreviates: Caco-2, Permeability coefficient (Papp) Caco-2 cells (A -> B).
Where [15] appears, read: Caco-2, Permeability coefficient (Papp) Caco-2 cells (B -> A).
Setting [16] is: MDCK-MDR1, Efflux ratio MDCK-MDR1 cells.
Setting [17] is: MDCK-MDR1, Permeability coefficient (Papp) MDCK-MDR1 cells (A -> B).
Setting [18] is: MDCK-MDR1, Permeability coefficient (Papp) MDCK-MDR1 cells (B -> A).
Where [19] appears, read: 10 μM of the compound, 48 hours of treatment from 24 hours post fertilization.

Where “and” joins values, the source holds several entries; their conditions need not be identical. Identical values can stand only once. Like-named read-outs stand apart in the source and are kept apart here.

Sequence of p70 ribosomal S6 kinase (p70S6K) (P23443 whole entry): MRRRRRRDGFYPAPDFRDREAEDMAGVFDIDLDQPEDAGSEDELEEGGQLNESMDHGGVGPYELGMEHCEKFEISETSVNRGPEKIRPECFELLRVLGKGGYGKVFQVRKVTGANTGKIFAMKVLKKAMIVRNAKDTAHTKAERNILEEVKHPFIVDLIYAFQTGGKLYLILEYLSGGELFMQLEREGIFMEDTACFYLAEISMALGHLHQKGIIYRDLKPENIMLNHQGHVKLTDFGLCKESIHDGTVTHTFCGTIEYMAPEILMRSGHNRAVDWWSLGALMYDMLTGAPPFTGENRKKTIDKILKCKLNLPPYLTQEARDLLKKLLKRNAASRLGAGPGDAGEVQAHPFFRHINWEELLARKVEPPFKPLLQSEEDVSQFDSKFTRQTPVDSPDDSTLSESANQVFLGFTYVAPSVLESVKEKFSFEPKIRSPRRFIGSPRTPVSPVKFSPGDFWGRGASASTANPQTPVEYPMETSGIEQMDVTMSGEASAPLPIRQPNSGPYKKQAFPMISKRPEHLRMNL

For `c1ccc2c(c1)Nc1ccccc1S2` [10H-phenothiazine], in [1] (Caco-2), the Papp A→B at 2 h was 42.7 ×10⁻⁶ cm/s, the Papp B→A at 2 h stood at 37.7 ×10⁻⁶ cm/s and the efflux ratio at 2 h was 0.88. Further, in data set [2] (MDCK-MDR1), the Papp A→B at 60 min turned out to be 53.8 ×10⁻⁶ cm/s, the basolateral-to-apical permeability (Papp B→A) at 60 min was 38 ×10⁻⁶ cm/s and the efflux ratio at 60 min came out at 0.71.

In the case of `CC1(CN2CCC(n3c(=O)[nH]c4ccccc43)CC2)OCc2ccccc2-n2cccc21.O=C(O)/C=C\C(=O)O` (stereo not shown) [CGS-9343B], the “Endothelial defect in rps29 mutant embryos (in words)” value (from here on “Endothelial defect”) in data set [3] (zebrafish) is “successfully rescued the endothelial defect”.

`NCCNS(=O)(=O)c1cccc2c(Cl)cccc12` [Compound A-3]: in [3], the “Hemoglobin levels in the zebrafish embryo (in words)” value is recorded as “rescued hemoglobin levels”. Moreover, in data set [3] (zebrafish), the “Morphology of the embryo head (in words)” value is listed as “improved the morphology of the apoptotic embryo head”. Also, the “Concentration decreasing the levels of p21 in CD34+ cells” value in data set [4] (in vitro) is 1 to 50 µM. In addition, the “p53 and p21 levels or nuclear localization (in words)” value in data set [4] (rps19 knockdown by siRNA) was “decreased p53 and p21 levels or nuclear localization”.

As to `NCCCCCCCCCCNS(=O)(=O)c1cccc2c(Cl)cccc12` [Compound A-7], the “Vascular defects in rps29 mutant embryos (in words)” value in data set [3] (zebrafish) is recorded as “rescued vascular defects”.

With `NCCCCCCNS(=O)(=O)c1cccc2ccccc12` [Compound W-5], in [3] (zebrafish), the “Vascular defects in rps29 mutant embryos (in words)” value is “rescued vascular defects”.

Regarding `NCCCCCCNS(=O)(=O)c1cccc2c(Cl)cccc12` [Compound W-7], the “Hemoglobin levels in the zebrafish embryo (in words)” value in data set [3] is “rescued hemoglobin levels”. For the same molecule, the “Endothelial defect” value in data set [3] (zebrafish) is given as “rescued the endothelial defect”.

Take `CC[C@H]1OC(=O)[C@H](C)[C@@H](O[C@H]2C[C@@](C)(OC)[C@@H](O)[C@H](C)O2)[C@H](C)[C@@H](O[C@@H]2O[C@H](C)C[C@H](N(C)C)[C@H]2O)[C@](C)(O)C[C@@H](C)C(=O)[C@H](C)[C@@H](O)[C@]1(C)O` [Erythromycin]: the efflux ratio at 2 h in data set [1] (setting [13]) was above 173. This molecule also yielded an apical-to-basolateral permeability (Papp A→B) at 2 h in data set [1] (setting [14]) of 0.21 ×10⁻⁶ cm/s. Moreover, the basolateral-to-apical permeability (Papp B→A) at 2 h in data set [1] (setting [15]) was 21.9 ×10⁻⁶ cm/s. Moreover, in data set [2] (setting [16]), the efflux ratio at 60 min is 0.96. For the same molecule, in data set [2] (setting [17]), the Papp A→B at 60 min came out at 31.9 ×10⁻⁶ cm/s. The Papp B→A at 60 min in [2] (setting [18]) was found to be 30.6 ×10⁻⁶ cm/s. In addition, the “Efflux status of reference compound (in words)” value in [5] (Caco-2) is “efflux substrates”.

Regarding `OCCN1CCN(CCCN2c3ccccc3Sc3ccc(C(F)(F)F)cc32)CC1` [Fluphenazine, 4-[3-[2-(trifluoromethyl)phenothiazin-10-yl]lpropyl]-1-piperazineethanol], in data set [3] (zebrafish), the “Endothelial defect” value is given as “successfully rescued the endothelial defect”.

With `FC(F)(F)c1ccc2c(c1)N(CCCCN1CCCCC1)c1ccccc1S2` [MT-009, 10-(4-(piperidin-1-yl)butyl)-2-(trifluoromethyl)-10H-phenothiazine], the “Efflux ratio MDCK-MDR1 cells” value in data set [6] (dog, MDCK-MDR1, 60 min) worked out at 0. Besides, the efflux ratio at 2 h in [1] (setting [13]) was found to be 0.68. The molecule also returned a Papp A→B at 2 h in [1] (setting [14]) of 3.81 ×10⁻⁶ cm/s. In data set [1] (setting [15]), this molecule came in with a Papp B→A at 2 h of 2.61 ×10⁻⁶ cm/s. For the same molecule, the Papp A→B at 60 min in data set [2] (setting [17]) is below 1.42 ×10⁻⁶ cm/s.

On to `OCCN(CCO)CC(O)CN1c2ccccc2Sc2ccc(C(F)(F)F)cc21` (stereo not shown) [MT-014, 2,2′-(2-hydroxy-3-(2-(trifluoromethyl)-10H-phenothiazin-10-yl)propylazanediyl)-diethanol], for which, in [7] (10 μM, three experiments), the “Tail and anemia phenotypes versus DMSO (in words)” value was “less severe tail and anemia phenotypes”.

With `OCCOCCOCCN1CCN(CC(O)CN2c3ccccc3Sc3ccc(C(F)(F)F)cc32)CC1` (stereo not shown) [MT-016, 1-(4-(2-(2-(2-hydroxyethoxy)ethoxy)ethyl)piperazin-1-yl)-3-(2-(trifluoromethyl)-10H-phenothiazin-10-yl)propan-2-ol], the efflux ratio at 2 h in data set [1] (setting [13]) came out at 1.33. This molecule also came in with a Papp A→B at 2 h in data set [1] (setting [14]) of 12.5 ×10⁻⁶ cm/s. Besides, in data set [1] (setting [15]), the Papp B→A at 2 h was 16.6 ×10⁻⁶ cm/s. Besides, the efflux ratio at 60 min in data set [2] (setting [16]) is above 9.83. In [2] (setting [17]), this molecule came in with a Papp A→B at 60 min of 1.05 ×10⁻⁶ cm/s. The molecule also came in with a Papp B→A at 60 min in [2] (setting [18]) of 10.3 ×10⁻⁶ cm/s. Further, in data set [7] (setting [19]), the “Ratio of embryos in group MA (mutant anemic)” value is 7% and 9% and 5%; the “Ratio of embryos in group MNA (mutant not anemic)” value is 7% and 8%; the “Ratio of embryos in group MPA (mutant partial anemic)” value was 17% and 10% and 15%; the “Ratio of embryos in group WT (wild type)” value was 69% and 74% and 72%.

For `CS(=O)(=O)NCC1CCN(CC(O)CN2c3ccccc3Sc3ccc(C(F)(F)F)cc32)CC1` (stereo not shown) [MT-036, N-((1-(2-hydroxy-3-(2-(trifluoromethyl)-10H-phenothiazin-10-yl)propyl)piperidin-4-yl)methyl)methanesulfonamide], in data set [8] (apical to basolateral, 2-hour), the “Permeability coefficient (Papp) Caco-2 cells (A -> B)” value is 8.55 10^−6 cm/s. Besides, the “Permeability coefficient (Papp) Caco-2 cells (B -> A)” value in data set [8] (basolateral to apical, 2-hour) is recorded as 15.93 10^−6 cm/s. Moreover, in data set [8] (from mean Papp B-A and A-B, 2-hour transport), the “Efflux ratio Caco-2 cells” value turned out to be 1.86. Further, the “Permeability coefficient (Papp) MDCK-MDR1 cells (A -> B)” value in [6] (apical to basolateral, 60-min, 37° C.) is recorded as 2.85 10^−6 cm/s. For the same molecule, the “Permeability coefficient (Papp) MDCK-MDR1 cells (B -> A)” value in [6] (basolateral to apical, 60-min, 37° C.) is 13.91 10^−6 cm/s. Besides, in data set [6] (from mean Papp B-A and A-B, 60-min transport, 37° C.), the “Efflux ratio MDCK-MDR1 cells” value is recorded as 4.89.

For the molecule `COCCc1ccc(OCC(O)CNC(C)C)cc1` (stereo not shown) [Metoprolol], the “Efflux ratio Caco-2 cells” value in [8] (human, Caco-2, 2 h) is listed as 1.11. The “Efflux ratio MDCK-MDR1 cells” value in data set [6] (dog, MDCK-MDR1, 60 min) is recorded as 0.85. Also, in data set [1] (setting [13]), the efflux ratio at 2 h turned out to be 0.89. Also, the Papp A→B at 2 h in data set [1] (setting [14]) was 33.8 ×10⁻⁶ cm/s. Further, the Papp B→A at 2 h in data set [1] (setting [15]) was 30.2 ×10⁻⁶ cm/s. In addition, the efflux ratio at 60 min in data set [2] (setting [16]) was found to be 0.81. For the same molecule, the “Cell permeability of reference compound (in words)” value in data set [5] is reported as “high cell permeability”.

In the case of `OCCN1CCN(CCCN2c3ccccc3Sc3ccc(Cl)cc32)CC1` [Perphenazine, 4-[3-(2-Chloro-10H-phenothiazin-10-yl)propyl]-1-piperazineethanol], the “Potency relative to chlorpromazine” value in data set [9] is “approximately 5 times”. In data set [3] (zebrafish), the “Endothelial defect” value is reported as “successfully rescued the endothelial defect”. For the same molecule, the Oral bioavailability entry in data set [10] is given as “approximately 40%”.

Regarding `CN1CCN(CCCN2c3ccccc3Sc3ccc(Cl)cc32)CC1` [Prochloperazine], the efflux ratio at 2 h in data set [1] (setting [13]) came to 0.35. In data set [1] (setting [14]), this molecule returned a Papp A→B at 2 h of 1.29 ×10⁻⁶ cm/s. The Papp B→A at 2 h in data set [1] (setting [15]) turned out to be 0.46 ×10⁻⁶ cm/s. This molecule also displayed a Papp A→B at 60 min in [2] (setting [17]) below 1.28 ×10⁻⁶ cm/s. Also, the Papp B→A at 60 min in data set [2] (setting [18]) was below 0.59 ×10⁻⁶ cm/s.

Consider `C=C[C@H]1C[N@@]2CC[C@H]1C[C@@H]2[C@@H](O)c1ccnc2ccc(OC)cc12` [Quinidine], for which the Papp A→B at 60 min in [2] (setting [17]) was determined as 10.1 ×10⁻⁶ cm/s. Also, in data set [2] (setting [18]), the Papp B→A at 60 min came to 44 ×10⁻⁶ cm/s.

Molecule `CN1CCN(CCCN2c3ccccc3Sc3ccc(S(=O)(=O)N(C)C)cc32)CC1` [Thioproperazine Dimesilate] registered a Papp A→B at 2 h in data set [1] (setting [14]) of 4.07 ×10⁻⁶ cm/s. The Papp B→A at 2 h in data set [1] (setting [15]) was determined as 3.51 ×10⁻⁶ cm/s. The apparent permeability from apical to basolateral (Papp A→B) at 60 min in data set [2] (setting [17]) came out at 3.35 ×10⁻⁶ cm/s. Also, in data set [2] (setting [18]), the Papp B→A at 60 min worked out at 3.56 ×10⁻⁶ cm/s.

For the molecule `CN1CCN(CCCN2c3ccccc3Sc3ccc(C(F)(F)F)cc32)CC1` [Trifluoperazine, 10-[3-(4-methylpiperazin-1-yl)propyl]-2-(trifluoromethyl)phenothiazine], in [3] (zebrafish), the “Endothelial defect” value is given as “successfully rescued the endothelial defect”. The “Concentration restoring the percentage of CD71+ cells in an erythroid cell population” value in data set [4] (in vitro) is 5 to 20 µM. Further, in data set [4] (shRNA against RPS19, primary CD34+ bone marrow cells from DBA patients), the “Erythroid differentiation block (in words)” value was “relieved the erythroid differentiation block”. For the same molecule, in data set [11], the “Red blood cell number and hemoglobin levels (in words)” value is “significantly increased red blood cell number and hemoglobin levels”; the “p53 activity in the bone marrow (in words)” value was “reduced p53 activity in the bone marrow”. Moreover, the Papp A→B at 60 min in data set [2] (setting [17]) is below 0.87 ×10⁻⁶ cm/s. In addition, the “Kinase activity of p70S6K (in words)” value in data set [12] is recorded as “inhibited the activity”.
